Results from ChEMBL document CHEMBL1201862, “PubChem BioAssay data set” (2004).
The source made the active and inactive calls.

Columns and labels:
[1] = insulin promoter down-regulators in MIN6 cells, imaging, high-content screening, mouse beta cells (AID 1628); assay type: functional
[2] = cytotoxicity toward NIH3T3 fibroblasts, dose response, counter-screen, cell-based, ATP luminescence, mouse fibroblasts (AID 2010); assay type: functional;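 also: cells exposed to compound for about 90 hours before reading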
[3] = growth suppression of beta-catenin-knockout colon cells, dose response, cell-based, HCT116, human colon tumor (AID 1045); assay type: functional;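 also: HCT116 colon tumor cells with beta catenin knocked out; cells exposed to compound for 60 hours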
[4] = growth suppression of PTEN-null colon cells, dose response, cell-based, HCT116 PTEN knockout (AID 1047); assay type: functional;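 also: HCT116 colon tumor cells with PTEN knocked out; cells exposed to compound for 60 hours before readout; potency for loss of cell viability measured by luminescence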
[5] = cytotoxicity in MIN6 insulinoma cells, dose response, cytotoxicity control, cell-based, mouse insulinoma (AID 2122); assay type: functional;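 also: confirmatory high-throughput counterscreen run to flag cytotoxic compounds; mouse MIN-6 beta cells carrying an insulin promoter eGFP reporter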
[6] = Shn3 3'UTR reporter inhibitors, dose response, cell-based, Clone20 osteoblasts, firefly luciferase, cherry-picked (AID 624132); assay type: functional;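 also: firefly luciferase luminescence from reporter carrying the Shn3 3'UTR in osteoblasts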
A-375 [7] = test: A375 melanoma cell viability reduction, dose response, counter-screen for MITF modulator project, cherry-pick samples, set 2 (AID 540335); assay type: functional, cell-based; conditions: Homo sapiens
[8] = inhibitors of intracellular T. cruzi replication, confirmation, NIH3T3 host cells, beta-gal luminescence (AID 2044); assay type: functional, cell-based;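 also: intracellular parasites grown in NIH/3T3 mouse fibroblasts as host cells; luminescent beta-galactosidase reporter signal from transgenic T. cruzi replicating inside host cells; inhibitors lower the luminescence signal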
[9] = HepG2 cell cytotoxicity, dose response, cytotoxicity control for Shn3 inhibitor project, CellTiter-Glo, cherry-picked (AID 624134); assay type: functional, cell-based
A-375 [10] = test: MITF: Counter assay: A375 proliferation Measured in Cell-Based System Using Plate Reader - 2084-03_Inhibitor_Dose_DryPowder_Activity. [Related pubchem assays (depositor defined):AID488944]; assay type: functional; conditions: Homo sapiens
[11] = control 3'UTR Renilla luciferase suppression, dose response, counter-screen for Shn3 inhibitor project, cell-based, Clone20-Shn3RL, cherry-picked (AID 624133); assay type: functional
[12] = biological target: T1, Microphthalmia-associated transcription factor (Homo sapiens, UniProt O75030); test: TRPM1 promoter luciferase signal decrease, dose response, MITF inhibitor project, cell-based, SK-MEL-5, cherry-picked, set 3 (AID 493073); assay type: functional
T1 sequence (O75030 whole entry): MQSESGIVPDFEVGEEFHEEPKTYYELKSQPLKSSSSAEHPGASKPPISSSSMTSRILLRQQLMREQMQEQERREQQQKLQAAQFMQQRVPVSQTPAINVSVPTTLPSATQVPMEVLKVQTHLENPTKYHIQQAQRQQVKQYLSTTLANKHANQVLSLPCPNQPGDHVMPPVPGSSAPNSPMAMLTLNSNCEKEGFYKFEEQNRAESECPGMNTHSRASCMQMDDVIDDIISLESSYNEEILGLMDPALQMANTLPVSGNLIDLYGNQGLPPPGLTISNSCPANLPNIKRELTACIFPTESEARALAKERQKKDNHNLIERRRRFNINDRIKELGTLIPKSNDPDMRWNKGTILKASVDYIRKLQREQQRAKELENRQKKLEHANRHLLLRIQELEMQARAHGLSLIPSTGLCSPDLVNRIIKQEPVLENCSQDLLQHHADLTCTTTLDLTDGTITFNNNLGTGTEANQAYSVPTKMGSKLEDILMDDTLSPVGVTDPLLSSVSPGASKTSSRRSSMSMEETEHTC

[13] = inhibitors of HIV Env-driven cell fusion, dose response, cherry-pick (AID 652057); assay type: functional, cell-based
HEK293 [14] = test: cells; conditions: Homo sapiens
[15] = inhibitors of clade B AD8 Env fusion, dose response, cell-based, cherry-pick (AID 652062); assay type: functional;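 also: luciferase signal from cell-cell fusion driven by HIV-1 clade B AD8 Env; potency is for inhibitors of fusion seen as a drop in luminescence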
[16] = CEM21 lymphoblast cell cytotoxicity, dose response, cytotoxicity control for viral fusion inhibitor project, CellTiter-Glo luminescence, cherry-picked (AID 652042); assay type: functional, cell-based;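 also: potency for signal decrease meaning cytotoxicity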
[17] = ZM109 Env clade C HIV-1 fusion inhibitors, dose response, HeLa effector, CEM target cells, luciferase, cherry-pick (AID 652058); assay type: functional, cell-based
HEK293 [18] = test: cells; conditions: Homo sapiens; remark: listed apart in the source
[19] = off-target signal loss in HeLa-CEM21 co-culture – HeLa F-luc CTL cells, cherry-picked, counter-screen for HIV-1 Env fusion inhibitor project, dose response (AID 652040); assay type: functional, cell-based;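 also: potency for signal decrease marking cytotoxic or nonspecific inhibition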
[20] = cytotoxicity in HEK-293T NF-kB-Luc cells, dose response, cytotoxicity control for B/T-cell NF-kB inhibitor project, cell-based, uHTS hits (AID 489019); assay type: functional;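 also: IC50 reflects cytotoxicity as loss of cell viability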
[21] = A549 cell cytotoxicity, dose response, cytotoxicity control, plate reader, cherry-pick, antagonist series (AID 743412); assay type: functional, cell-based
Jurkat = test: antigen receptor-induced NF-kB inhibitors, dose response, Jurkat, luciferase reporter, luminescence, B- and T-cell (AID 489004); assay type: functional, cell-based; conditions: Homo sapiens;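 also: NF-kB luciferase reporter Jurkat cells stimulated with PMA plus ionomycin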
[22] = LGR2 antagonists, dose response, cell-based, HEK293, CRE-luciferase reporter, cherry pick, set 2 (AID 743343); assay type: functional;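 also: transfected cells were stimulated with diluted bursicon conditioned medium after compound addition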
[23] = MC4R antagonists, dose response, counter-screen for LGR2 antagonist project, cell-based, plate reader, cherry pick (AID 743444); assay type: functional;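 also: transfected HEK 293 cells stimulated with alpha-MSH peptide; potency of inhibitors of the alpha-MSH evoked signal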
Paired box protein Pax-8 = Paired box protein Pax-8 (Homo sapiens, UniProt Q06710); test: inhibitors of PAX8-driven TPO luciferase reporter, dose response, RMG-I cells, cherry-pick (AID 687027); assay type: functional, cell-based;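 also: luciferase reporter driven by Pax8 target thyroperoxidase promoter measured by SteadyGlo luminescence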
[24] = HepG2 cell cytotoxicity, dose response, cytotoxicity control, plate reader, cherry-pick, antagonist series (AID 743416); assay type: functional, cell-based
Galanin receptor type 3 = biological target: T2, Galanin receptor type 3 (Homo sapiens, UniProt O60755); test: Fluorescence-based cell-based primary high throughput dose response assay to identify antagonists of the Galanin Receptor 3 (GalR3).; assay type: functional
T2 sequence (O60755 whole entry): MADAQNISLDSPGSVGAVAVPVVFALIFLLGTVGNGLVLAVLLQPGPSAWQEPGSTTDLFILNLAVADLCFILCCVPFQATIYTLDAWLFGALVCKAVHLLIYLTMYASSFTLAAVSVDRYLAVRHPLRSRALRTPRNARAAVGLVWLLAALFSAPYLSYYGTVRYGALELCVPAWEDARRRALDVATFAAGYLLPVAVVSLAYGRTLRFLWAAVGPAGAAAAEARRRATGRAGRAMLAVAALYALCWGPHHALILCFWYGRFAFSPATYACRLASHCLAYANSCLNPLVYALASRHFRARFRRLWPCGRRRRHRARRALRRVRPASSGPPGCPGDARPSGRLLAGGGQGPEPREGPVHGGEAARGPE

cells = assay type: functional, cell-based; conditions: HEK-CNG

Sequence of Paired box protein Pax-8 (Q06710 whole entry): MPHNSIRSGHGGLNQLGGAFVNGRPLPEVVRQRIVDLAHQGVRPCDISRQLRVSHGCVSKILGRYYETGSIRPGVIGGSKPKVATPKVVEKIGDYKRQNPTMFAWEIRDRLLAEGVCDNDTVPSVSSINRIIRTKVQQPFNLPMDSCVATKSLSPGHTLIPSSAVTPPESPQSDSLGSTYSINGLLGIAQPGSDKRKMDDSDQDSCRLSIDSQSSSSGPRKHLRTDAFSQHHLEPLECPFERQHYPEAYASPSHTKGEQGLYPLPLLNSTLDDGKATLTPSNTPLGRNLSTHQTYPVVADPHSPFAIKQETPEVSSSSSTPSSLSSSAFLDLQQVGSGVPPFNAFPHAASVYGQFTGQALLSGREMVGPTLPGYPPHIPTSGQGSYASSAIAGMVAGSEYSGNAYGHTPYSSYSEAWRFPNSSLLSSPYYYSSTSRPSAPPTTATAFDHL

Row | SMILES | IC50 [1] | IC50 [5] | AC50 [6] | AC50 [9] | AC50 [11] | AC50 [13] | EC50 (HEK293 [14]) | AC50 [15] | AC50 [17] | EC50 (HEK293 [18]) | AC50 [19] | IC50 [20] | IC50 (Jurkat) | further results
1 | O=C(c1ccc(F)cc1)C(CN1CCOCC1)c1ccccc1 (stereo unspecified) | 4.17 µM (active) | 3.27 µM (active) | 17.6 µM (active) | 19.4 µM (active) | 6.91 µM (active) | – | – | – | – | – | – | – | – | EC50 [2]: 10.9 µM (active); EC50 [3]: 2.42 µM (active); EC50 [4]: 3.36 µM (active); AC50 (A-375 [7]): > 35 µM (active); EC50 [8]: 4.06 µM (active); AC50 (A-375 [10]): > 35 µM (active); AC50 [12]: 5.96 µM (active)
2 | COc1ccc(CCN2C(=O)c3[nH]nc(-c4ccccc4O)c3C2c2ccccc2)cc1OC (stereo unspecified) | – | – | – | – | – | 0.376 µM (active) | > 59.7 µM (inactive) | 0.621 µM (active) | 0.625 µM (active) | > 59.7 µM (inactive) | 0.929 µM (active) | – | – | AC50 [16]: 52.7 µM (active)
3 | COc1ccc(C(=O)CN2C(=O)c3ccccc3S2(=O)=O)cc1 | – | – | – | – | – | 1.07 µM (active) | – | 2.54 µM (active) | 10.7 µM (active) | – | 2.16 µM (active) | > 80 µM (inactive) | 1.08 µM (active) | AC50 [21]: > 52 µM (inactive); AC50 [22]: 0.675 µM (active); AC50 [23]: 0.691 µM (active); AC50 (Paired box protein Pax-8): 3.53 µM (active); AC50 [24]: > 52 µM (inactive)
4 | CC(=O)c1cn(Cc2ccccc2C#N)c2ccccc12 | 1.01 µM (active) | 0.64 µM (active) | 0.527 µM (active) | 2.2 µM (active) | 4.28 µM (active) | – | – | – | – | – | – | > 80 µM (inactive) | 30 µM (inactive) | IC50 (Galanin receptor type 3): 3.07 µM (active); EC50 (cells): > 29.9 µM (inactive)
5 | COc1ccc(OC)c(-c2cc(C(=O)Nc3c(C)nn(Cc4ccccc4)c3C)no2)c1 | – | – | – | – | – | – | > 59.6 µM (inactive) | – | – | > 59.6 µM (inactive) | – | – | – | –
